Drawing on patent US3970643A, “5"-Amino-3',5"-dideoxybutirosin A and derivatives” (Parke, Davis & Company, priority 1975, dated 1976), this text covers MIC for 1 molecule.

Holding throughout (assay): MIC, microtitration in TSB, in vitro antibacterial screening
Format in all cases: cell-based

The test system of one assay is Esch. coli JR-76.2. The conditions noted are these: Escherichia coli, JR76.2. An excerpt:
(§1) They show activity when tested by well-recognized in vitro anti-bacterial screening procedures.
(§2) ^b Butirosin and Gentamicin resistant

The subject of another assay is Pseudo. aerug. G-76. As to conditions: Pseudomonas aeruginosa, Pseudo. aerug. G-76, butirosin and gentamicin resistant.
Text: as §1, §2

Another assay deals with Pseudo. aerug. 130. The conditions noted are these: Pseudomonas aeruginosa, Pseudo. aerug. 130, gentamicin resistant.
Text: as §1
^c Gentamicin resistant

The test system of a further assay is Pseudo. aerug. 58.38. The conditions noted are these: Pseudomonas aeruginosa.
Text: as §1

The subject of a further assay is Pseudo. aerug. VAD12-7-7. As to conditions: Pseudomonas aeruginosa.
Text: as §1

For another assay, the system named is Pseudo. aerug. No. 28. As to conditions: Pseudomonas aeruginosa.
Text: as §1

In another assay the test system is Serr. marcescens IMM-5. As to conditions: Serratia marcescens, IMM5.
Text: as §1

Another assay concerns Entero. cloacae IMM-50. The conditions noted are these: Enterobacter cloacae, IMM50.
Text: as §1

A further assay has as its system Pseudo. aerug. UI-18. The conditions noted are these: Pseudomonas aeruginosa.
Text: as §1

Another assay deals with Pseudo. aerug. 733. The conditions noted are these: Pseudomonas aeruginosa.
Text: as §1

The next assay relates to Pseudo. aerug. Aquilar. As to conditions: Pseudomonas aeruginosa, butirosin resistant.
Text: as §1

The subject of the next assay is Pseudo. aerug. LA-3399. As to conditions: Pseudomonas aeruginosa.
Text: as §1

For a further assay, the system named is Staph auretis S18713. The conditions noted are these: Staph auretis S18713, butirosin resistant.
Text: as §1

In another assay the test system is Klebs. pneumoniae MGH-1. The conditions noted are these: Klebsiella pneumoniae, MGH1.
Text: as §1

A further assay concerns Pseudo. aerug. 74C-1. As to conditions: Pseudomonas aeruginosa.
Text: as §1

The MIC is the smallest concentration in the dilution series that meets the test's criterion for growth inhibition. Low readings indicate inhibition by little substance, high ones a need for much substance.

Converted amounts (≈) assume the structure as drawn.

Regarding `NCC[C@H](O)C(=O)N[C@@H]1C[C@H](N)[C@@H](O[C@H]2O[C@H](CN)[C@@H](O)C[C@H]2N)[C@H](O[C@@H]2O[C@H](CN)[C@H](O)[C@H]2O)[C@H]1O` [I carbonate, 5"-amino-3',5"-dideoxybutirosin A], the MIC with Esch. coli JR-76.2 came out at 25 µg/mL (≈ 46.4 µM); with Pseudo. aerug. G-76 it was 12.5 µg/mL (≈ 23.2 µM); with Pseudo. aerug. 130 it was 6.3 µg/mL (≈ 11.7 µM); in the assay on Pseudo. aerug. 58.38, 3.1 µg/mL (≈ 5.76 µM); in the assay with Pseudo. aerug. VAD12-7-7, 3.1 µg/mL (≈ 5.76 µM); against Pseudo. aerug. No. 28, 1.6 µg/mL (≈ 2.97 µM). The MIC against Serr. marcescens IMM-5 is 25 µg/mL (≈ 46.4 µM); in the assay on Entero. cloacae IMM-50 it was 6.3 µg/mL (≈ 11.7 µM); with Pseudo. aerug. UI-18 it was 3.1 µg/mL (≈ 5.76 µM); with Pseudo. aerug. 733, 3.1 µg/mL (≈ 5.76 µM); in the assay on Pseudo. aerug. Aquilar, 12.5 µg/mL (≈ 23.2 µM); in the assay on Pseudo. aerug. LA-3399, 12.5 µg/mL (≈ 23.2 µM). The MIC in the assay on Staph auretis S18713 was 3.1 µg/mL (≈ 5.76 µM); in the assay on Klebs. pneumoniae MGH-1 it was 6.3 µg/mL (≈ 11.7 µM); against Pseudo. aerug. 74C-1, 3.1 µg/mL (≈ 5.76 µM).
